Here are results for seven compounds from patent publication US20060089411A1, “Treatment of Stargardt's disease and other lipofuscin disorders with combined retinaldehyde inhibitor and zeaxanthin” (priority 2004, published 2006).

Data set [1] deals with rabbit or bovine RPE cells. The settings on record: added to RPE cell cultures; high oxygen concentrations or intense blue light; Sundelin 2001, Shaban 2002, Nilsson 2003; cited from earlier work.
The conditions of data set [2]: high dosage, people with risk factors such as smoking; cited from earlier work.
The test system of data set [3] is RPE65. The settings on record: Gollapalli et al 2004; cited from earlier work.
Chain of RPE65 (Q16518 whole entry, species assumed): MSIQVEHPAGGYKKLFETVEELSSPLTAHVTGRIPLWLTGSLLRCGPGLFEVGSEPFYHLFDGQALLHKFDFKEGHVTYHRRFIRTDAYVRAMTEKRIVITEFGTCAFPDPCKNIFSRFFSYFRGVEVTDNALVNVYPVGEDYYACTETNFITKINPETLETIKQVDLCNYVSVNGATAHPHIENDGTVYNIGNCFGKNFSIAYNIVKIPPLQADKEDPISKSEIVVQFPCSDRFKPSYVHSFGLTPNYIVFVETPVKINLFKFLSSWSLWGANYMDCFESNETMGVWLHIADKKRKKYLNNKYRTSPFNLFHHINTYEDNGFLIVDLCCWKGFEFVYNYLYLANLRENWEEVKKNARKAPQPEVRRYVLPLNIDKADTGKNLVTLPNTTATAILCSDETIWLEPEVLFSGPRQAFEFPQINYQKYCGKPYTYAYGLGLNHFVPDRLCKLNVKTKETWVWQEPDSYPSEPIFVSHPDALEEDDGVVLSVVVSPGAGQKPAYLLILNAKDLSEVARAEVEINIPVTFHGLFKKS
Data set [4] relates to ABCR −/− mice. As to conditions: mice with genetically engineered ABCR −/− gene defect; Radu et al 2003, US 2003/032,078; cited from earlier work.
The test system of data set [5] is short chain dehydrogenase enzyme that converts 11-cis-retinol into 11-cis-retinal. The settings on record: Radu et al 2003; cited from earlier work.
The conditions of data set [6]: people taking isotretinoin; decreased acuity under moderately dark conditions; cited from earlier work.
The nature of data set [7]: Laser-verteporfin photodynamic therapy in a patient with wet macular degeneration who was taking zeaxanthin. The settings on record: one patient, zeaxanthin 20 milligrams per day for several months before treatment. The class given is in vivo, human. From the text:
Additional insights arose from a fortuitous event involving an elderly acquaintance of the Applicant, who was taking zeaxanthin and who decided to have a treatment known as “photodynamic therapy”, which uses a laser to convert a drug called verteporfin into a toxin that will kill and seal newly-growing blood vessels in the retina. The patient's doctor, who is regarded as one of the world's foremost experts in treating macular degeneration, advised the patient to stop taking zeaxanthin before the laser treatment, because (in the physician's opinion) it likely would not help, and it might interfere with the laser treatment. That advice was entirely consistent with the packaging information that accompanies verteporfin, which states that carotenoids should be avoided before treatment, since they may interfere with the treatment.
That discovery and invention arose from an event involving a personal acquaintance of the Inventor. That person was suffering from the “wet” or “exudative” form of macular degeneration, which involves abnormal and aggressive blood vessel growth in and behind the macula. They decided to have a treatment known as “photodynamic therapy”, which uses a laser that is shone directly into the eye of a patient who has been anesthetized. […]

With `O=C1O[C@H]([C@@H](O)CO)C(O)=C1O` [Vitamin C], the formation of lipofuscin result in data set [1] was “helped suppress cell toxicity and the formation of lipofuscin”.

Regarding `CC1=C(/C=C/C(C)=C/C=C/C(C)=C/C=C/C=C(C)/C=C/C=C(C)/C=C/C2=C(C)CCCC2(C)C)C(C)(C)CCC1` [beta-carotene], in data set [2], the “rates and risks of lung cancer” value is “actually increases the rates and risks of lung cancer”.

As for `CC1=C(/C=C/C(C)=C/C=C/C(C)=C\C(=O)O)C(C)(C)CCC1` [isotretinoin, 13-cis-retinoic acid], the “inhibition of RPE65” value in data set [3] is listed as “inhibit at least two different enzymes involved in vision”. Further, in data set [4], the “accumulation of lipofuscin in the retinas” value is “can help slow and reduce the accumulation of lipofuscin”. Moreover, the “inhibition of short chain dehydrogenase” value in data set [5] was “inhibit at least two different enzymes involved in vision”. In data set [6], the vision side effect result is “night blindness”.

For the compound `CC1=C[C@H](O)CC(C)(C)[C@H]1/C=C/C(C)=C/C=C/C(C)=C/C=C/C=C(C)/C=C/C=C(C)/C=C/C1=C(C)C[C@@H](O)CC1(C)C` [lutein], in data set [1], the cell toxicity result is listed as “helped suppress cell toxicity”; the formation of lipofuscin result was “helped suppress cell toxicity and the formation of lipofuscin”.

For `CC(C)=CCC/C(C)=C/C=C/C(C)=C/C=C/C(C)=C/C=C/C=C(C)/C=C/C=C(C)/C=C/C=C(\C)CCC=C(C)C` [lycopene], in data set [1], the cell toxicity entry is listed as “helped suppress cell toxicity”; the formation of lipofuscin result is “helped suppress cell toxicity and the formation of lipofuscin”.

For `CC1=C(/C=C/C(C)=C/C=C/C(C)=C/C=C/C=C(C)/C=C/C=C(C)/C=C/C2=C(C)C[C@@H](O)CC2(C)C)C(C)(C)C[C@H](O)C1` [zeaxanthin, 3R,3′R-zeaxanthin], in data set [7], the “results of the laser-verteporfin treatment” value is listed as “much better than anyone had expected”. For the same compound, in data set [1], the cell toxicity result is reported as “helped suppress cell toxicity”; the formation of lipofuscin entry was “helped suppress cell toxicity and the formation of lipofuscin”.

As to Vitamin E, in data set [1], the cell toxicity result is given as “helped suppress cell toxicity”; the formation of lipofuscin entry was “helped suppress cell toxicity and the formation of lipofuscin”.
